# Results published in patent publication US20250108051A1, “THERAPEUTIC AGENT FOR CANCER” (TOHOKU UNIVERSITY, priority 2022, published 2025).
# Where two headings read alike, the source gives them in different places.
# Assays:
# Format in all cases: cell-based
# [1] = test system: RKO (BRAF V600E-mutated colorectal cancer cell line); assay: MTT assay, encorafenib + binimetinib with retinoid
# Procedure: (§1) RKO cells were seeded on a 96-well plate with the number of cells of 1.5×10^3 cells/well, CO115 cells were seeded on a 96-well plate with the number of cells of 2.5×10^3 cells/well, and HT29 cells and WiDR cells were respectively seeded on 96-well plates with the number of cells of 6×10^3 cells/well. After incubation for about 24 hours until the cell density reached 40% to 60%, the drug was administered. After incubation at 37° C. for 72 hours, the MTT assay was performed using Cell Counting Kit-8 (Dojindo Laboratories, Kumamoto, Japan). To each well was added 10 μl of Cell Counting Kit-8 solution, the plates were placed in a culture vessel at 5% CO2 and 37° C. for 120 minutes to perform a color reaction, and then the absorbance at 450 nm was measured and evaluated with a microplate reader SpectraMax M2e (Molecular Devices, Sunnyvale, CA, USA). Cells administered with 0.1% DMSO were used as a control. The above was performed three or more times as independent experiments.
# (§2) In various kinds of colorectal cancer cell lines, the inhibition effect of a BRAF inhibitor (encorafenib) and an MEK inhibitor (binimetinib) for the viability of cells and the enhancement by ATRA were examined. […] The horizontal axis indicates component concentrations of encorafenib and binimetinib in a range of 0 μM to 10 μM, and the vertical axis indicates the cell viability when 0 μM, 1.0 μM, or 10 μM (each bar graph) of ATRA was administered. As shown in the drawing, encorafenib and binimetinib were used in an equal molar concentration.
# (§3) As the compounds for acting and on a retinoid receptor, retinol, tamibarotene, bexarotene among the retinoids were used. As the cell lines, the above-described cell lines including RKO, HT29, and CO115 were used. As the BRAF inhibitor and the MEK inhibitor to be used in combination, a component (EB) obtained by mixing encorafenib and binimetinib in equal amounts was used as in Test Example 2.
# as §3, with “acting” for “acting and”, “tamibarotene, and” for “tamibarotene,”, “colorectal cancer” for “above-described”, “HT29, CO115, WiDR, COLO205,” for “HT29,”, “LIM2405 described above” for “CO115”
# [2] = test system: HT29 (BRAF V600E-mutated colorectal cancer cell line); assay: MTT assay, encorafenib + binimetinib with retinoid
# Procedure: as §1, §2, §3
# as §3, with “acting” for “acting and”, “tamibarotene, and” for “tamibarotene,”, “colorectal cancer” for “above-described”, “HT29, CO115, WiDR, COLO205,” for “HT29,”, “LIM2405 described above” for “CO115”
# [3] = test system: CO115 (BRAF V600E-mutated colorectal cancer cell line); assay: MTT assay, encorafenib + binimetinib with retinoid
# Procedure: as §1, §2, §3
# as §3, with “acting” for “acting and”, “tamibarotene, and” for “tamibarotene,”, “colorectal cancer” for “above-described”, “HT29, CO115, WiDR, COLO205,” for “HT29,”, “LIM2405 described above” for “CO115”
# [4] = test system: WiDR (BRAF V600E-mutated colorectal cancer cell line); assay: MTT assay, encorafenib + binimetinib with retinoid; conditions: Test Example 6; concentration-dependent
# Procedure: as §1, §2
# as §3, with “acting” for “acting and”, “tamibarotene, and” for “tamibarotene,”, “colorectal cancer” for “above-described”, “HT29, CO115, WiDR, COLO205,” for “HT29,”, “LIM2405 described above” for “CO115”
# [5] = test system: COLO205 cell line; assay: MTT assay, encorafenib + binimetinib with retinoid; conditions: Test Example 6; concentration-dependent
# Procedure: as §1
# as §3, with “acting” for “acting and”, “tamibarotene, and” for “tamibarotene,”, “colorectal cancer” for “above-described”, “HT29, CO115, WiDR, COLO205,” for “HT29,”, “LIM2405 described above” for “CO115”
# [6] = test system: LIM2405 cell line; assay: MTT assay, encorafenib + binimetinib with retinoid; conditions: Test Example 6; concentration-dependent
# Procedure: as §1
# as §3, with “acting” for “acting and”, “tamibarotene, and” for “tamibarotene,”, “colorectal cancer” for “above-described”, “HT29, CO115, WiDR, COLO205,” for “HT29,”, “LIM2405 described above” for “CO115”
# [7] = test system: RKO cells, sensitive strain; assay: Viability of sensitive strain with encorafenib and ATRA; conditions: for IC50: Homo sapiens, RKO, Sensitive Strain, read-out: IC50 (50% inhibition concentration)
# [8] = test system: RKO cells, encorafenib/cetuximab resistant strain; assay: Viability of encorafenib/cetuximab resistant strain with encorafenib and ATRA; conditions: for IC50: Homo sapiens, RKO, Resistant Strain, read-out: IC50 (50% inhibition concentration)
# Procedure: Encorafenib/cetuximab resistant strains were constructed, and the inhibitor enhancing effect of ATRA was examined for the resistant strains.
# For the construction of the resistant strains, the above-described RKO cells were seeded in 15 mm dishes and a group in which the BRAF inhibitor Encorafenib and an anti-EGFR antibody Cetuximab were administered and a group in which the BRAF inhibitor Encorafenib, the MEK inhibitor Binimetinib, and the anti-EGFR antibody Cetuximab were administered were prepared.
# The vertical axis represents the viability (ratio), and the horizontal axis represents the administration amount of encorafenib.
# [9] = Test Example 3, EB 0.1 μM, retinol 30 μM, tamibarotene 10 μM or bexarotene 10 μM
# [10] = Test Example 6, concentration-dependent, smaller concentrations than Test Example 3
# [11] = Test Example 3, EB 0.01 μM, retinol, tamibarotene or bexarotene 1 μM
# [12] = Test Example 3, EB 0.1 μM, retinol 30 μM or tamibarotene 30 μM
Structure (SMILES),"cell viability on further adding a retinoid to EB [1, 9]","cell viability on further adding a retinoid to EB [1, 10]","cell viability on further adding a retinoid to EB [2, 11]","cell viability on further adding a retinoid to EB [2, 10]","cell viability on further adding a retinoid to EB [3, 10]",cell viability on further adding a retinoid to EB [4],cell viability on further adding a retinoid to EB [5],cell viability on further adding a retinoid to EB [6],IC50 ([7]; ATRA 0 μM) [nM],IC50 ([7]; ATRA 1 μM) [nM],"viability (ratio) ([7]; sensitive strain (S), ATRA 1 μM, encorafenib 0 to 10 μM)","viability (ratio) ([7]; sensitive strain, ATRA not administered)",IC50 ([8]; ATRA 0 μM) [nM],IC50 ([8]; ATRA 1 μM) [nM],"viability (ratio) ([8]; resistant strain (R), ATRA 1 μM)","cell viability on further adding a retinoid to EB [3, 12]"
C=C(c1ccc(C(=O)O)cc1)c1cc2c(cc1C)C(C)(C)CCC2(C)C [bexarotene],greatly reduced,greatly decreased,greatly reduced,greatly decreased,greatly decreased,greatly decreased,greatly decreased,greatly decreased,,,,,,,,
COC(=O)N[C@@H](C)CNc1nccc(-c2cn(C(C)C)nc2-c2cc(Cl)cc(NS(C)(=O)=O)c2F)n1 [encorafenib],,,,,,,,,1230,4.6,around 0.1,around 0.3,> 10000,1580,around 0.3,
CC1(C)CCC(C)(C)c2cc(NC(=O)c3ccc(C(=O)O)cc3)ccc21 [tamibarotene],greatly reduced,greatly decreased,greatly reduced,greatly decreased,greatly decreased,greatly decreased,greatly decreased,greatly decreased,,,,,,,,greatly reduced
CC1=C(/C=C/C(C)=C/C=C/C(C)=C/CO)C(C)(C)CCC1 [retinol],greatly reduced,greatly decreased,greatly reduced,greatly decreased,greatly decreased,greatly decreased,greatly decreased,greatly decreased,,,,,,,,greatly reduced
